Patent US7427625B2, “Substituted thiatriazaacenaphthylene-6-carbonitrile kinase inhibitors” (Janssen Pharmaceutica, N.V., priority 2006, dated 2008)

Assays:
EGFR = target: T1, EGFR (Homo sapiens, UniProt P00533); test: EGFR Kinase Assay; type: biochemical; conditions: for inhibition at 2 µM: test concentration of 2 μM, read-out: EGFR percent inhibition
T1 construct: The intracellular portion of EGFR started at nucleotide 2189 (corresponding to amino acid 667) and ended at the termination codon; made in house; host or cells: Sf9 insect cells (baculovirus)
Text: The EGFR kinase used was a fusion of Glutathione-S-Transferase (GST) and a PCR amplified intracellular portion of EGFR (NM_005228). The intracellular portion of EGFR started at nucleotide 2189 (corresponding to amino acid 667) and ended at the termination codon. The portion was PCR amplified with primers that added the lambda attB sequences to each end, recombined into an entry vector, then into a GST destination vector (as described in Gateway Technologies Manual by Invitrogen Corporation, Carlsbad, Calif.).
The destination vector was recombined in the DH10BAC strain of bacteria to produce a bacmid. The bacmid was transfected into Sf 9 cells and the supernatant containing the baculovirus was collected. The GSTEGFR protein was purified using large cultures of Sf 9 cells infected with stock virus. After an appropriate period of time, the cells were collected and lysed. The GSTEGFR was then purified from the lysate on Glutathione-Sepharose columns (as described by Amersham Biosciences, Buckinghamshire, United Kingdom).
The EGFR substrate was prepared by biotinylating polyGluTyr (128 mg) (Sigma, St. Louis, Mo.) in a 1×PBS buffer incubated together with a 12-fold molar excess of Sulfo-NHS-LC-Biotin on ice for at least 2 hrs. The free biotin was separated from the biotinylated polyGluTyr on a gel filtration column.
A mixture of a 10× kinase buffer (500 mM Tris at pH 8.0, 100 mM Magnesium Chloride and 1 mM Sodium Vanadate), DTT (1 mM final from 500 mM stock), ATP (5 μM final from 10 mM stock), biotinylated polyGluTyr (10 μg/μL stock), γ-^33P ATP (10 μCi/μL stock) and water was added to each well (90 μL/well) of a Streptavidin Flashplate (Perkin Elmer, Wellesley, Mass.).
Test compound in 100% DMSO (2 μL) was added to the appropriate wells. Diluted GSTEGFR (1:300 dilution in 50 mM Tris at pH 8.0 and 0.1% bovine serum albumin) (10 μL) was added to the wells to initiate the reactions.
The plates were incubated at 30° C. for 1 hr with shaking. The reacted contents were removed and the plates were sequentially washed three times with a 1×PBS stop buffer (300 μL without Magnesium and Calcium) and 100 mM EDTA. After the final wash, the same stop buffer (200 μL) was added to the wells. The plates were then sealed and read on the TopCount scintillation counter.
Test compounds were assayed in triplicate at 16 concentrations at half-log dilutions starting at 200 uM. A maximum and minimum signal for the assay was determined on each plate. The percent inhibition of a test compound was calculated according to the formula
For a series of test concentrations, the IC50 was derived by graphing percent inhibition against the log of the concentrations tested for a given compound. For those compounds without an IC50, the percent inhibition results are shown at a test concentration of 2 μM.

Aurora-A = target: T2, Aurora-A (Mus musculus, UniProt P97477); test: Aurora-A Screening Assay; type: biochemical, murine; conditions: for inhibition at 1 µM: test concentration of 1 μM, read-out: Aurora-A percent inhibition
T2 construct: followed by the full length protein encoding the murine Aurora-A; polyhistidine (N); made in house; host or cells: sf9 insect cells
T2 sequence (P97477 1-395): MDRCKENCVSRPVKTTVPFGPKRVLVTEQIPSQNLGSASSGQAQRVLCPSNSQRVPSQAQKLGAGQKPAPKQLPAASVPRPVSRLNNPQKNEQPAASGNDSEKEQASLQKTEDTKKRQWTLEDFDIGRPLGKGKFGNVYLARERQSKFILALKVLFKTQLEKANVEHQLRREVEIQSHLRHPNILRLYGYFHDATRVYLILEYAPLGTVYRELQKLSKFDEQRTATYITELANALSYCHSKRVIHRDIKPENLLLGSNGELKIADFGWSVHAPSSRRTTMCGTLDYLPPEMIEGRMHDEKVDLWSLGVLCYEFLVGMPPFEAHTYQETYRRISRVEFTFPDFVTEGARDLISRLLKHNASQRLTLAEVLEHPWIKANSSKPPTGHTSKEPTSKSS
Protocol: (§1) A kinase reaction mixture was prepared containing 50 mM Tris-HCl at pH 8, 10 mM, MgCl20.1 mM […], 1 mM DTT, 10 μM ATP, 0.025 μM biotinylated histone-H1 peptide substrate and 0.2 μCuries per well ^33P-γ-ATP (2000-3000 Ci/mmol). 70 μL of the kinase reaction mixture was dispensed into the well of a Streptavidin FlashPlate.
(§2) Test compound stock in 100% DMSO (1 μL) was added to the wells resulting in a final concentration of 1% DMSO in the reaction with a 100 μL final reaction volume. Each enzyme was diluted in 50 mM Tris-HCl pH=8.0, 0.1% BSA and 30 μL was added to each well to initiate the reaction. The reaction was incubated for one hour at 30° C. At the end of the 1 hr incubation, the reaction was terminated by aspirating the mixture from the plate and washing the wells twice with PBS containing 100 mM EDTA. The biotinylated peptide substrate became immobilized on the Flashplate^198 and the incorporation of ^33P-γ-ATP was measured by reading the plate on a scintillation counter. Inhibition of the enzymatic activity was measured by observing a reduced amount of ^33P-γ-ATP incorporated into the immobilized peptide.
Aurora-A is a fusion protein containing a polyhistidine tag at the N terminus followed by the full length protein encoding the murine Aurora-A (Accession number GB BC014711) expressed and purified from sf9 insect cells. The assay used 400 ng of the N-terminal biotinylated peptide biotin-GRTGRRNSI-amide (Aurora-A) per well.
(§3) The IC50 was derived according to the procedure described in Example 2. For those compounds without an IC50, the percent inhibition results are shown at a test concentration of 1 μM.

HER-2 = target: T3, HER-2 (Homo sapiens, UniProt P04626); test: HER-2 Kinase Assay; type: biochemical; conditions: for inhibition at 1 µM: test concentration of 1 μM, read-out: HER-2 percent inhibition
T3 construct: the nucleotides encoding amino acids 679 to 1255 of HER-2; purchased Proqinase (Freiburg, Germany)
Protocol: HER-2 kinase was purified at Proqinase (Freiburg, Germany) from a construct that consisted of a fusion of GST (Glutathione-S-Transferase), HIS6-Thrombin and the nucleotides encoding amino acids 679 to 1255 of HER-2.
A mixture of a 10× kinase reaction buffer (600 mM Hepes at pH 7.5, 30 mM Magnesium Chloride, 0.03 mM Sodium Vanadate and 500 μg/mL PEG 20,000), DTT (1.2 mM final from a 10 mM stock), ATP (1 μM from a 10 mM stock), biotinylated polyGluTyr (1.5 ng/μL final from stock of 1 μg/μL prepared by Upstate Biotechnologies, Lake Placid, N.Y.), Manganese Chloride (3 mM final from a 1 M stock), γ-^33P-ATP (10 μCi/μL stock) and water (70 μL/well) was added to each well of a Streptavidin Flashplate (Cat. #SMP103, NEN, Boston, Mass.).
Test compound stock (1 μL) was added to the appropriate wells. Diluted GSTHER2 kinase (6.7 ng/μL diluted into 50 mM Tris-HCl at pH 8.0 and 0.1% bovine serum albumin) (30 μL) was added (total volume of 200 ng/well) to initiate the reactions.
The reaction plates were incubated at 30° C. for 1 hr. The reaction was terminated by aspiring the reaction mixture from the plate wells and washing the wells three times with a 1×PBS stop buffer (300 μL) and 100 mM EDTA. After the final wash, the same stop buffer (200 μL) was again added to the wells. The plates were then sealed and read on the TopCount scintillation counter.
as §3

VEGF-R2 = target: T4, VEGF-R2 (Rattus norvegicus, UniProt O08775); test: VEGF-R2 Screening Assay; type: biochemical; conditions: for inhibition at 1 µM: test concentration of 1 μM, read-out: VEGF-R2 percent inhibition
T4 construct: polyhistidine (N)
Protocol: as §1, §2
The VEGF-R2 enzyme is a fusion protein containing a polyhistidine tag at the N terminus followed by amino acids 786 to 1343 of the rat VEGF-R2 kinase domain (Accession number U93306). The assay used 150 ng of the N-terminal biotinylated peptide biotin-KHKKLAEGSAYEEV-amide (VEGF-R2) per well.
as §3

T4 sequence (O08775 786-1343): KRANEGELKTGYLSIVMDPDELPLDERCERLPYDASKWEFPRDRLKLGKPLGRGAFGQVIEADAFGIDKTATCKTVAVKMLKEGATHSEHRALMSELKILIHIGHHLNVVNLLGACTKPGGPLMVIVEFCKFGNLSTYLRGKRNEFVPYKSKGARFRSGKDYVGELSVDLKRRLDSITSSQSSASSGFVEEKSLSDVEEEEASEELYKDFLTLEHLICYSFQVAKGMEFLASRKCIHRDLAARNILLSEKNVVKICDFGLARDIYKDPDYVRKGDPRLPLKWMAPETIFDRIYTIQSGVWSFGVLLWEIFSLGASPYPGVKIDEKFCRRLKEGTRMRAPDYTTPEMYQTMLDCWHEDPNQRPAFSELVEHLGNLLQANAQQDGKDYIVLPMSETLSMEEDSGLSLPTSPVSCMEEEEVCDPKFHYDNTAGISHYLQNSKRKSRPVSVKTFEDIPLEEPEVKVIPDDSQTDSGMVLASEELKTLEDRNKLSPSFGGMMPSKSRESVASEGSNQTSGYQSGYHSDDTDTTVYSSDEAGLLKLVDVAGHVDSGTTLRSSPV
T3 sequence (P04626 679-1255): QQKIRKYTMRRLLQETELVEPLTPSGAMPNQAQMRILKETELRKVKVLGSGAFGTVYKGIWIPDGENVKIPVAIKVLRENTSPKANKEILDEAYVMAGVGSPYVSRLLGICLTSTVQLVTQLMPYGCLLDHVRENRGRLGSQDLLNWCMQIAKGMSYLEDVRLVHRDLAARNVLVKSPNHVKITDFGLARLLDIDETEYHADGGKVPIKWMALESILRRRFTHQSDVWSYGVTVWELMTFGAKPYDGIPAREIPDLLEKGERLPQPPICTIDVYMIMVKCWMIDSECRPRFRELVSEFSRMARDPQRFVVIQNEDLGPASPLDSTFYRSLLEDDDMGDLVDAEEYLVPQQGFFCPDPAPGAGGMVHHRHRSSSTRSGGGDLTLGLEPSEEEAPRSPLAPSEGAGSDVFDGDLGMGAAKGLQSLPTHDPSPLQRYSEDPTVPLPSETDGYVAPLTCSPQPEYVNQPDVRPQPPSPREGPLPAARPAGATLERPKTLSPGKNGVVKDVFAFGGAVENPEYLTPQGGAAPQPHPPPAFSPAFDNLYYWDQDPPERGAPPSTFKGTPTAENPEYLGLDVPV
T1 sequence (P00533 669-1210 limits assumed): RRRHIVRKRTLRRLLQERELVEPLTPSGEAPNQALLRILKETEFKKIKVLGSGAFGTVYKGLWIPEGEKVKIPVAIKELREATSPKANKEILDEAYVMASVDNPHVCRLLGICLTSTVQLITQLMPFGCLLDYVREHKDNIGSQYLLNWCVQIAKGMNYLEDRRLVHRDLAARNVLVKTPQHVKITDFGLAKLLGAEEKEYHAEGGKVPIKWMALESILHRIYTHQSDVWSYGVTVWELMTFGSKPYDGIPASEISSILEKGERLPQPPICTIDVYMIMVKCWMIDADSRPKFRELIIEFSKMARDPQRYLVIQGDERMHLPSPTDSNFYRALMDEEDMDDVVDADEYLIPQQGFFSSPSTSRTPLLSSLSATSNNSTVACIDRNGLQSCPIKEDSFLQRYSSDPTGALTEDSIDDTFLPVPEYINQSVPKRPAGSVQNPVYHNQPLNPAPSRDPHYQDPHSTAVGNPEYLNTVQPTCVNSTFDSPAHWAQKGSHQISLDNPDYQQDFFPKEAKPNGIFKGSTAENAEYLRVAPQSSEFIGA

Row | SMILES | inhibition at 2 µM (EGFR) | inhibition at 1 µM (Aurora-A) | inhibition at 1 µM (HER-2) | inhibition at 1 µM (VEGF-R2) | IC50 (EGFR) | IC50 (Aurora-A) | IC50 (HER-2) | IC50 (VEGF-R2)
1 | N#Cc1cnc2sc(C(=O)Nc3ccccn3)c3c2c1N(c1c(Cl)ccc2c1OCO2)C(=O)N3 [Cpd 37, 5-(5-chloro-benzo[1,3]dioxol-4-yl)-6-cyano-4-oxo-4,5-dihydro-3H-1-thia-3,5,8-triaza-acenaphthylene-2-carboxylic acid pyridin-2-ylamide] | 10% | 3% | 11% | -22% | – | – | – | –
2 | CC(C)(CO)NC(=O)c1sc2ncc(C#N)c3c2c1NC(=O)N3c1c(Cl)ccc2c1OCO2 [Cpd 38, 5-(5-chloro-benzo[1,3]dioxol-4-yl)-6-cyano-4-oxo-4,5-dihydro-3H-1-thia-3,5,8-triaza-acenaphthylene-2-carboxylic acid (2-hydroxy-1,1-dimethyl-ethyl)-amide] | 13% | 4% | 0% | 2% | – | – | – | –
3 | Cn1ccc(NC(=O)c2sc3ncc(C#N)c4c3c2NC(=O)N4c2c(Cl)ccc3c2OCO3)n1 [Cpd 39, 5-(5-chloro-benzo[1,3]dioxol-4-yl)-6-cyano-4-oxo-4,5-dihydro-3H-1-thia-3,5,8-triaza-acenaphthylene-2-carboxylic acid (1-methyl-1H-pyrazol-3-yl)-amide] | 26% | 15% | 0% | 9% | – | – | – | –
4 | N#Cc1cnc2sc(C(=O)Nc3ccncc3)c3c2c1N(c1c(Cl)ccc2c1OCO2)C(=O)N3 [Cpd 40, 5-(5-chloro-benzo[1,3]dioxol-4-yl)-6-cyano-4-oxo-4,5-dihydro-3H-1-thia-3,5,8-triaza-acenaphthylene-2-carboxylic acid pyridin-4-ylamide] | 30% | 15% | 0% | 9% | – | – | – | –
5 | N#Cc1cnc2sc(C(=O)Nc3ccc(CN4CCC(N)CC4)cc3)c3c2c1N(c1c(Cl)ccc2c1OCO2)C(=O)N3 [Cpd 47, 5-(5-chloro-benzo[1,3]dioxol-4-yl)-6-cyano-4-oxo-4,5-dihydro-3H-1-thia-3,5,8-triaza-acenaphthylene-2-carboxylic acid [4-(4-amino-piperidin-1-ylmethyl)-phenyl]-amide] | – | – | – | – | 0.514 µM | > 100 µM | 1.87 µM | > 100 µM
6 | N#Cc1cnc2sc(C(=O)Nc3ccc(CN4CCOCC4)cc3)c3c2c1N(c1ccc(Oc2ccccc2)cc1)C(=O)N3 [Cpd 50, 6-cyano-4-oxo-5-(4-phenoxy-phenyl)-4,5-dihydro-3H-1-thia-3,5,8-triaza-acenaphthylene-2-carboxylic acid (4-morpholin-4-ylmethyl-phenyl)-amide] | – | – | – | – | 0.124 µM | > 100 µM | 2.2 µM | > 10 µM
7 | COC1CCN(Cc2ccc(NC(=O)c3sc4ncc(C#N)c5c4c3NC(=O)N5c3ccc(Oc4ccccc4)cc3)cc2)CC1 [Cpd 51, 6-cyano-4-oxo-5-(4-phenoxy-phenyl)-4,5-dihydro-3H-1-thia-3,5,8-triaza-acenaphthylene-2-carboxylic acid [4-(4-methoxy-piperidin-1-ylmethyl)-phenyl]-amide] | 48% | – | – | – | – | > 100 µM | > 10 µM | > 100 µM
8 | CCOC(=O)c1sc2nc(O)c(C#N)c3c2c1NC(=O)N3c1ccc(Oc2ccccc2)cc1 [Cpd 52, 6-cyano-7-hydroxy-4-oxo-5-(4-phenoxy-phenyl)-4,5-dihydro-3H-1-thia-3,5,8-triaza-acenaphthylene-2-carboxylic acid ethyl ester] | – | – | – | – | 0.0169 µM | > 100 µM | > 10 µM | > 100 µM
9 | CCOC(=O)c1sc2nc(Cl)c(C#N)c3c2c1NC(=O)N3c1ccc(Oc2ccccc2)cc1 [Cpd 53, 7-chloro-6-cyano-4-oxo-5-(4-phenoxy-phenyl)-4,5-dihydro-3H-1-thia-3,5,8-triaza-acenaphthylene-2-carboxylic acid ethyl ester] | 2% | – | – | – | – | > 100 µM | > 100 µM | > 100 µM
10 | N#Cc1cnc2sc(C(=O)Nc3ccc(CN4CCC(F)(F)CC4)cc3)c3c2c1N(c1c(Cl)ccc2c1OCO2)C(=O)N3 [Cpd 54, 5-(5-chloro-benzo[1,3]dioxol-4-yl)-6-cyano-4-oxo-4,5-dihydro-3H-1-thia-3,5,8-triaza-acenaphthylene-2-carboxylic acid [4-(4,4-difluoro-piperidin-1-ylmethyl)-phenyl]-amide] | 11% | – | – | – | – | 15.3 µM | 3.37 µM | 12.3 µM
